Reference: patent publication US20140031324A1, “COMPOUND COMPOSITION FOR INHALATION USED FOR TREATING ASTHMA” (Intech Biopharm Ltd., priority 2010, published 2014)

How the values were obtained:
[1] = test system: OVA-sensitized mice; experiment: Albumin (OVA)-induced asthma model in mice; methacholine-induced tracheal contraction (airway hyperresponsiveness, FlexiVent); type: in vivo, Balb/c mice; conditions: single super high dose, alone or in combination, intratracheal, FIGS. 2 to 4
[2] = long acting beta-2 agonists (LABA); cited from earlier work

Row | Compound | acute drug tolerance (ability of trachea relaxing) [1] | duration of action [2]
1 | CCC(NC(C)C)C(O)c1ccc(O)c2[nH]c(=O)ccc12 (stereo not drawn) [Procaterol] | acute drug tolerance phenomenon of reducing the ability of trachea relaxing | 
2 | OCc1cc(C(O)CNCCCCCCOCCCCc2ccccc2)ccc1O (stereo not drawn) [Salmeterol, Salmeterol Xinafoate] | acute drug tolerance phenomenon of reducing the ability of trachea relaxing | up to twelve
